Assay results reported in publication PMC11372264, “^61Cu-PSMA–Targeted PET for Prostate Cancer: From Radiotracer Development to First-in-Human Imaging” (Journal of Nuclear Medicine, 2024).
Several values for one entry are separate records, joined by “and”; a condition that tells them apart may be missing. Identical values can stand only once.

Key:
[1] = test system: patient with metastatic prostate cancer; test: First-in-human PET/CT imaging; format: in vivo; details: 105 MBq/32 µg i.v., 3 h after tracer administration
Procedure: [^61Cu]Cu-NODAGA-PSMA-I&T was produced at the Nuclear Medicine Department of the Klinikum Rechts der Isar (Technical University of Munich) for human use. It was applied according to §13.2b of the German pharmaceutical law, and the requirement to obtain consent for the retrospective data analysis was waived. The manufacture of the tracer was performed via an automated process through a GE Healthcare FASTlab 2 module. Details on the production and quality controls are described in the supplemental materials. A dose of 105 MBq/32 µg was administered intravenously to a patient with known metastatic prostate cancer before ^177Lu-labeled PSMA radiopharmaceutical therapy. The patient was coinjected with 10 mg of furosemide (Lasix; Sanofi-Aventis). Imaging was performed 3 h after tracer administration on a Biograph Vision PET/CT scanner (Siemens Healthineers). Images were obtained from the skull to mid-thigh and reconstructed into multiplanar PET, CT, and fused PET/CT images. CT was used for attenuation correction.
FIGURE 4. Administration of [^61Cu]Cu-NODAGA-PSMA-I&T, in person with metastatic castration-resistant prostate cancer with disease progression, after abiraterone and docetaxel therapy before ^177Lu-labeled PSMA radiopharmaceutical therapy. Imaging was performed 3 h after tracer administration. […] Patient has also 1 kidney after left nephrectomy.

[2] = Human dosimetry estimates (OLINDA/EXM version 1.0) from mouse biodistribution; details: standard adult man phantom; mouse kinetics assumed same as human
Procedure: Additional biodistribution data were generated in healthy BALB/c mice using [^64Cu]Cu-NODAGA-PSMA-I&T at 1, 4, 12, and 24 h after injection and combined with the data of [^61Cu]Cu-NODAGA-PSMA-I&T at 1 and 4 h after injection. Non–decay-corrected biodistribution data for ^61Cu (t1/2, 3.33 h) were used to generate time–activity curves for [^61Cu]Cu-NODAGA-PSMA-I&T. OLINDA/EXM version 1.0 (Vanderbilt University) was used for the dosimetry estimates, as described in the supplemental materials.

LNCaP cells = test: Cellular uptake and distribution (surface-bound, internalized) in LNCaP cells; format: cell-based; details: 1 h, 37°C
Procedure: The lipophilicity of [^61Cu]Cu-DOTAGA-PSMA-I&T and [^61Cu]Cu-NODAGA-PSMA-I&T was assessed by determining the distribution coefficient in a 1:1 mixture of 1-octanol–to–phosphate-buffered saline at pH 7.4, in comparison with all reference radiotracers. Inhibitory concentration of 50% (IC50) was assessed by competition binding on lymph node carcinoma of the prostate (LNCaP) using ((S)-1-carboxy-5-(4-(-^125I-iodo-benzamido)pentyl)carbamoyl)-L-glutamic acid as the reference radioligand. Cellular uptake and distribution were assessed in LNCaP cells at 5, 15, 30, 60, and 120 min after exposure to the radioligand at 37°C, either alone or in the presence of 10 µM 2-(phosphonomethyl)pentanedioic acid to distinguish between specific and nonspecific uptake.
FIGURE 1. In vitro assessment in LNCaP cells after 1 h at 37°C. (A) Competition binding activity curves of ^natCu-DOTAGA-PSMA-I&T, ^natCu-NODAGA-PSMA-I&T, and ^natGa-PSMA-11 on LNCaP cells after 1 h of incubation on ice, using ((S)-1-carboxy-5-(4-(-^125I-iodo-benzamido)pentyl)carbamoyl)-L-glutamic acid ([^125I-BA]KuE) at concentration of 0.2 nM as reference radioligand. (B) Cellular uptake (surface-bound + internalized). Cell surface–bound and internalized fractions are indicated. Results represent mean ± SD of specific (total − nonspecific) uptake from minimum of 2 separate experiments, each in triplicate.

## O=C([O-])CN1CCN(CC(=O)[O-])CCN(C(CCC(=O)N[C@H](Cc2ccc(O)c(I)c2)C(=O)N[C@H](Cc2ccccc2)C(=O)N[C@H](CCCCNC(=O)CCCCCCC(=O)NCCCC[C@H](NC(=O)N[C@@H](CCC(=O)O)C(=O)O)C(=O)O)C(=O)O)C(=O)O)CC1.[61Cu+2] (stereo partly drawn) [[^61Cu]Cu-NODAGA-PSMA-I&T, NODAGA-(l-y)fk(sub-KuE)]
[1]
  SUVmax, kidney (right): 57.3
  SUVmax, liver: 6.5
  SUVmax, salivary gland (right parotid gland): 20.5
  SUVmax, tumor lesion left liver lobe: 23.6
  SUVmax, tumor lesion right lower pubic bone: 154.2
  SUVmax, tumor lesion right scapula: 86.4
  SUVmax, tumor lesion sacral bone: 16.5
  SUVmean, kidney (right): 37.9
  SUVmean, liver: 3.4
  SUVmean, salivary gland (right parotid gland): 12.6
  SUVmean, tumor lesion left liver lobe: 11.7
  SUVmean, tumor lesion right lower pubic bone: 83.7
  SUVmean, tumor lesion right scapula: 55.3
  SUVmean, tumor lesion sacral bone: 9.9
[2]
  Effective dose: 0.0142 mSv/MBq and 1.42E−02 mSv/MBq
  Total absorbed dose, men: Adrenals: 8.39E−02 mGy/MBq
  Total absorbed dose, men: Brain: 6.18E−05 mGy/MBq
  Total absorbed dose, men: Gallbladder wall: 2.30E−02 mGy/MBq
  Total absorbed dose, men: Heart wall: 6.94E−03 mGy/MBq
  Total absorbed dose, men: Kidneys: 1.74E+00 mGy/MBq
  Total absorbed dose, men: LLI wall: 4.64E−03 mGy/MBq
  Total absorbed dose, men: Liver: 2.51E−02 mGy/MBq
  Total absorbed dose, men: Lungs: 6.11E−03 mGy/MBq
  Total absorbed dose, men: Muscle: 6.00E−03 mGy/MBq
  Total absorbed dose, men: Osteogenic cells: 5.31E−03 mGy/MBq
  Total absorbed dose, men: Pancreas: 4.83E−02 mGy/MBq
  Total absorbed dose, men: Red marrow: 1.11E−02 mGy/MBq
  Total absorbed dose, men: Skin: 2.90E−03 mGy/MBq
  Total absorbed dose, men: Small intestine: 3.79E−02 mGy/MBq
  Total absorbed dose, men: Spleen: 7.37E−02 mGy/MBq
  Total absorbed dose, men: Stomach wall: 1.71E−02 mGy/MBq
  Total absorbed dose, men: Testes: 5.39E−04 mGy/MBq
  Total absorbed dose, men: Thymus: 1.67E−03 mGy/MBq
  Total absorbed dose, men: Thyroid: 4.99E−04 mGy/MBq
  Total absorbed dose, men: Total body: 1.38E−02 mGy/MBq
  Total absorbed dose, men: ULI wall: 1.43E−02 mGy/MBq
  Total absorbed dose, men: Urinary bladder wall: 2.06E−03 mGy/MBq
LNCaP cells; specific uptake
  Cellular uptake (surface-bound + internalized): 22.4% ± 3.3%
LNCaP cells; % of applied activity
  Internalized fraction: 11.7 ± 1.6%
  Surface-bound fraction: 10.8 ± 1.8%
